Paper PMC8185074, “Anchor extension: a structure-guided approach to design cyclic peptides targeting enzyme active sites” (Nature Communications, 2021)
pIC50: −log10 of the molar value. Like-named read-outs stand apart in the source and are kept apart here. Peptide text beside a SMILES is read from it.

Columns and labels:
Format in all cases: biochemical
HDAC3 = molecular target: T1, HDAC3 (Homo sapiens, UniProt O15379); experiment: HDAC3 inhibition, full IC50 measurement (Reaction Biology; fluorogenic p53 peptide RHKK(Ac)AMC)
T1 construct: purchased Reaction Biology Corporation (assay run by the CRO)
In short: (§1)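 Inhibitory peptides were acoustically dispensed with enzyme, then substrate added; 1 h at 30 °C. Developer stopped reaction; plateau endpoint fluorescence (360/460 nm) gave IC50.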

HDAC2 [1] = molecular target: T2, HDAC2 (Homo sapiens, UniProt Q92769); experiment: Initial HDAC2 IC50 estimate (BPS Biosciences HDAC fluorogenic assay kit)
T2 construct: purchased Reaction Biology Corporation (assay run by the CRO)
In short: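 Inhibition measured by kit-based fluorogenic HDAC activity assays, with each point in duplicate or triplicate. Values come from a full 1 µM–100 pM series (1:10 steps) or are range estimates from just 20 nM and 200 nM.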

HDAC8 = molecular target: T3, HDAC8 (Homo sapiens, UniProt Q9BY41); experiment: HDAC8 inhibition, full IC50 measurement (Reaction Biology; fluorogenic p53 peptide RHKK(Ac)AMC); settings: t1/t2 replicates
T3 construct: purchased Reaction Biology Corporation (assay run by the CRO)
T3 sequence (Q9BY41 1-377): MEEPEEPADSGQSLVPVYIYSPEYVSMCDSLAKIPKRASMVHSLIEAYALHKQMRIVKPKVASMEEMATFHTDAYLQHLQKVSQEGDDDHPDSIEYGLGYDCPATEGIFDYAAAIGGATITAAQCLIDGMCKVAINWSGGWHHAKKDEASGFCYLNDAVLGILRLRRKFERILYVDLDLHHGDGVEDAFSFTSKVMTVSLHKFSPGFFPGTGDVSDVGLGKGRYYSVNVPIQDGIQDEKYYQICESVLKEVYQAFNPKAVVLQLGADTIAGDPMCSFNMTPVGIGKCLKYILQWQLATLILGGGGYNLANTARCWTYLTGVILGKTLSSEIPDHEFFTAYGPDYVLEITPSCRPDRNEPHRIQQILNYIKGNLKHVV
In short: as §1

HDAC2 [2] = molecular target: T2, HDAC2; experiment: HDAC2 inhibition, full IC50 measurement (Reaction Biology; fluorogenic p53 peptide RHKK(Ac)AMC)
In short: as §1

HDAC1 = molecular target: T4, HDAC1 (Homo sapiens, UniProt Q13547); experiment: HDAC1 inhibition, full IC50 measurement (Reaction Biology; fluorogenic p53 peptide RHKK(Ac)AMC); settings: t1/t2 replicates
T4 construct: purchased Reaction Biology Corporation (assay run by the CRO)
In short: as §1

T1 sequence (O15379 whole entry): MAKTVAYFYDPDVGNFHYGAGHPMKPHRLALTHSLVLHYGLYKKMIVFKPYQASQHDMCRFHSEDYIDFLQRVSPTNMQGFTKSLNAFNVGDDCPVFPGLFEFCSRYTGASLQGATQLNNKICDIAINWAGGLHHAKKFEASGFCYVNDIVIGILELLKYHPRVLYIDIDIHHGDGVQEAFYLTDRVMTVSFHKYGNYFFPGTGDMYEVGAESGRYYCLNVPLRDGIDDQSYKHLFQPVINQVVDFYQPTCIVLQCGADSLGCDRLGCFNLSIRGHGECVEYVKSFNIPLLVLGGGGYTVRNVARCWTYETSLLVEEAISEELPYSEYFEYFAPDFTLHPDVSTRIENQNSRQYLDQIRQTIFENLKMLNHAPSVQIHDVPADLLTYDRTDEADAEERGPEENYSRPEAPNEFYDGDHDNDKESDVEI
T1 sequence (Q9Y618 395-489 partner limits assumed): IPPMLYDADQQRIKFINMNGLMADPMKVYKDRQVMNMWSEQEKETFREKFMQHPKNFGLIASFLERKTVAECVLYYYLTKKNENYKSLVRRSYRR
T2 sequence (Q92769 whole entry): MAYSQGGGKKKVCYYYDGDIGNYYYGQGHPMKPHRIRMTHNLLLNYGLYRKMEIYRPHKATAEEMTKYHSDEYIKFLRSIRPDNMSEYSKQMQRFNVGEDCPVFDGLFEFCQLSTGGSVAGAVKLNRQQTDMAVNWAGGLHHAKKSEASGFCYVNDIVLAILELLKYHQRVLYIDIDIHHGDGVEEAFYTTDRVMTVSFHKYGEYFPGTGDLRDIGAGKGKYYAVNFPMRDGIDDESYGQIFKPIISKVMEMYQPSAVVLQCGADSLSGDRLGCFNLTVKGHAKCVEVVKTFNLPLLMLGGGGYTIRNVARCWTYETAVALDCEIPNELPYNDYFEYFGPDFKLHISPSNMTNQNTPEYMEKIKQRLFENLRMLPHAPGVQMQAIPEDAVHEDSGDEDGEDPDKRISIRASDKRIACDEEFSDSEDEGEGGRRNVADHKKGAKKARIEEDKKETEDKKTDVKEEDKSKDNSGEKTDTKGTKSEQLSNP
T4 sequence (Q13547 whole entry): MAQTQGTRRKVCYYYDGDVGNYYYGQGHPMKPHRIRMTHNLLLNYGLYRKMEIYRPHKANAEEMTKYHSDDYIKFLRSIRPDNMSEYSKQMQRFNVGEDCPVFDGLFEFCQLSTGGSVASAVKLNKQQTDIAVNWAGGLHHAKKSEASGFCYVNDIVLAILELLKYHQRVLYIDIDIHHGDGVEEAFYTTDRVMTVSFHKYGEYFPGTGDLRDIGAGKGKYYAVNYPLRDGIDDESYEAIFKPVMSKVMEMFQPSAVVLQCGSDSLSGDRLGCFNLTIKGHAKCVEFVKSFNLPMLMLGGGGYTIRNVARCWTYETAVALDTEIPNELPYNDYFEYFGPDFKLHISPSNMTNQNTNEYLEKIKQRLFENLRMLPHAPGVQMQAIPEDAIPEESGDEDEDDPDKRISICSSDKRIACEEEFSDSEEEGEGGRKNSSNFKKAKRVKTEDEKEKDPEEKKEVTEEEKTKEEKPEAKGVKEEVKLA

## N=C(N)NCCC[C@@H]1NC(=O)[C@@H](CCCNC(=N)N)NC(=O)[C@H]2CCCN2C(=O)[C@@H](Cc2c[nH]cn2)NC(=O)[C@H](Cc2ccc(O)cc2)NC(=O)[C@H](CCCCCS)NC(=O)[C@H](CCc2ccccc2)NC(=O)[C@@H](CO)NC(=O)[C@H](CC(=O)O)NC1=O [des3.3.1, SHA-Tyr-dHis-dPro-dArg-Arg-Asp-dSer-C27] (HELM PEPTIDE1{[O=C([C@H](CCCCCS)N[*:1])[*:2]].Y.[dH].[dP].[dR].R.D.[dS].[O=C([C@H](CCc1ccccc1)N[*:1])[*:2]]}$PEPTIDE1,PEPTIDE1,1:R1-9:R2$$$V2.0)
HDAC3; Conc. 1.00E-05 M, t1
  HDAC3 activity raw data (signal): -3010
HDAC3; Conc. 1.00E-05 M, t2
  HDAC3 activity raw data (signal): -2975
HDAC3; Conc. 1.11E-06 M, t1
  HDAC3 activity raw data (signal): -3312
HDAC3; Conc. 1.11E-06 M, t2
  HDAC3 activity raw data (signal): 10427
HDAC3; Conc. 1.23E-07 M, t1
  HDAC3 activity raw data (signal): 21751
HDAC3; Conc. 1.23E-07 M, t2
  HDAC3 activity raw data (signal): 40450
HDAC3; Conc. 1.37E-08 M, t1
  HDAC3 activity raw data (signal): 79797
HDAC3; Conc. 1.37E-08 M, t2
  HDAC3 activity raw data (signal): 111435
HDAC3; Conc. 1.52E-09 M, t1
  HDAC3 activity raw data (signal): 143913
HDAC3; Conc. 1.52E-09 M, t2
  HDAC3 activity raw data (signal): 186935
HDAC3; Conc. 3.33E-06 M, t1
  HDAC3 activity raw data (signal): -4595
HDAC3; Conc. 3.33E-06 M, t2
  HDAC3 activity raw data (signal): 4931
HDAC3; Conc. 3.70E-07 M, t1
  HDAC3 activity raw data (signal): 9528
HDAC3; Conc. 3.70E-07 M, t2
  HDAC3 activity raw data (signal): 17560
HDAC3; Conc. 4.12E-08 M, t1
  HDAC3 activity raw data (signal): 66179
HDAC3; Conc. 4.12E-08 M, t2
  HDAC3 activity raw data (signal): 74103
HDAC3; Conc. 4.57E-09 M, t1
  HDAC3 activity raw data (signal): 114353
HDAC3; Conc. 4.57E-09 M, t2
  HDAC3 activity raw data (signal): 144441
HDAC3; Conc. 5.08E-10 M, t1
  HDAC3 activity raw data (signal): 223427
HDAC3; Conc. 5.08E-10 M, t2
  HDAC3 activity raw data (signal): 239829
HDAC2 [1]; Supp. Table 4, rough estimates, for promising hits full measurements, read-out: HDAC2 activity (initial values for HDAC2 IC50)
  pIC50: 7.60
HDAC2 [1]; Supplementary Dataset 2, read-out: HDAC2 activity (initial activity)
  pIC50: 7.70
HDAC8; peptide conc. 1.00E-05 M, listed as des3.3.1_t1
  HDAC8 activity raw data (signal): 1764805
HDAC8; peptide conc. 1.00E-05 M, listed as des3.3.1_t2
  HDAC8 activity raw data (signal): 2650341
HDAC8; peptide conc. 1.11E-06 M, listed as des3.3.1_t1
  HDAC8 activity raw data (signal): 12709203
HDAC8; peptide conc. 1.11E-06 M, listed as des3.3.1_t2
  HDAC8 activity raw data (signal): 10450749
HDAC8; peptide conc. 1.23E-07 M, listed as des3.3.1_t1
  HDAC8 activity raw data (signal): 26946160
HDAC8; peptide conc. 1.23E-07 M, listed as des3.3.1_t2
  HDAC8 activity raw data (signal): 26450742
HDAC8; peptide conc. 1.37E-08 M, listed as des3.3.1_t1
  HDAC8 activity raw data (signal): 39769433
HDAC8; peptide conc. 1.37E-08 M, listed as des3.3.1_t2
  HDAC8 activity raw data (signal): 37609928
HDAC8; peptide conc. 1.52E-09 M, listed as des3.3.1_t1
  HDAC8 activity raw data (signal): 46887256
HDAC8; peptide conc. 1.52E-09 M, listed as des3.3.1_t2
  HDAC8 activity raw data (signal): 44277806
HDAC8; peptide conc. 3.33E-06 M, listed as des3.3.1_t1
  HDAC8 activity raw data (signal): 5825269
HDAC8; peptide conc. 3.33E-06 M, listed as des3.3.1_t2
  HDAC8 activity raw data (signal): 6935130
HDAC8; peptide conc. 3.70E-07 M, listed as des3.3.1_t1
  HDAC8 activity raw data (signal): 21428540
HDAC8; peptide conc. 3.70E-07 M, listed as des3.3.1_t2
  HDAC8 activity raw data (signal): 18809141
HDAC8; peptide conc. 4.12E-08 M, listed as des3.3.1_t1
  HDAC8 activity raw data (signal): 34070523
HDAC8; peptide conc. 4.12E-08 M, listed as des3.3.1_t2
  HDAC8 activity raw data (signal): 34526681
HDAC8; peptide conc. 4.57E-09 M, listed as des3.3.1_t1
  HDAC8 activity raw data (signal): 42350569
HDAC8; peptide conc. 4.57E-09 M, listed as des3.3.1_t2
  HDAC8 activity raw data (signal): 43646566
HDAC8; peptide conc. 5.08E-10 M, listed as des3.3.1_t1
  HDAC8 activity raw data (signal): 45458566
HDAC8; peptide conc. 5.08E-10 M, listed as des3.3.1_t2
  HDAC8 activity raw data (signal): 46659013
HDAC2 [2]; Conc. 1.00E-06 M, t1
  HDAC2 activity raw data (signal): 33408
HDAC2 [2]; Conc. 1.00E-06 M, t2
  HDAC2 activity raw data (signal): 20115
HDAC2 [2]; Conc. 1.11E-07 M, t1
  HDAC2 activity raw data (signal): 236730
HDAC2 [2]; Conc. 1.11E-07 M, t2
  HDAC2 activity raw data (signal): 242180
HDAC2 [2]; Conc. 1.23E-08 M, t1
  HDAC2 activity raw data (signal): 774356
HDAC2 [2]; Conc. 1.23E-08 M, t2
  HDAC2 activity raw data (signal): 764329
HDAC2 [2]; Conc. 1.37E-09 M, t1
  HDAC2 activity raw data (signal): 1033572
HDAC2 [2]; Conc. 1.37E-09 M, t2
  HDAC2 activity raw data (signal): 1142758
HDAC2 [2]; Conc. 1.52E-10 M, t1
  HDAC2 activity raw data (signal): 1093848
HDAC2 [2]; Conc. 1.52E-10 M, t2
  HDAC2 activity raw data (signal): 1228270
HDAC2 [2]; Conc. 3.33E-07 M, t1
  HDAC2 activity raw data (signal): 99662
HDAC2 [2]; Conc. 3.33E-07 M, t2
  HDAC2 activity raw data (signal): 91701
HDAC2 [2]; Conc. 3.70E-08 M, t1
  HDAC2 activity raw data (signal): 494195
HDAC2 [2]; Conc. 3.70E-08 M, t2
  HDAC2 activity raw data (signal): 473509
HDAC2 [2]; Conc. 4.12E-09 M, t1
  HDAC2 activity raw data (signal): 948142
HDAC2 [2]; Conc. 4.12E-09 M, t2
  HDAC2 activity raw data (signal): 1005576
HDAC2 [2]; Conc. 4.57E-10 M, t1
  HDAC2 activity raw data (signal): 1113632
HDAC2 [2]; Conc. 4.57E-10 M, t2
  HDAC2 activity raw data (signal): 1221209
HDAC2 [2]; Conc. 5.08E-11 M, t1
  HDAC2 activity raw data (signal): 1186904
HDAC2 [2]; Conc. 5.08E-11 M, t2
  HDAC2 activity raw data (signal): 1232500
HDAC1; peptide conc. 1.00E-06 M, listed as des3.3.1_t1
  HDAC1 activity raw data (signal): 15410
HDAC1; peptide conc. 1.00E-06 M, listed as des3.3.1_t2
  HDAC1 activity raw data (signal): 7555
HDAC1; peptide conc. 1.11E-07 M, listed as des3.3.1_t1
  HDAC1 activity raw data (signal): 112128
HDAC1; peptide conc. 1.11E-07 M, listed as des3.3.1_t2
  HDAC1 activity raw data (signal): 105674
HDAC1; peptide conc. 1.23E-08 M, listed as des3.3.1_t1
  HDAC1 activity raw data (signal): 518542
HDAC1; peptide conc. 1.23E-08 M, listed as des3.3.1_t2
  HDAC1 activity raw data (signal): 461507
HDAC1; peptide conc. 1.37E-09 M, listed as des3.3.1_t1
  HDAC1 activity raw data (signal): 889775
HDAC1; peptide conc. 1.37E-09 M, listed as des3.3.1_t2
  HDAC1 activity raw data (signal): 866345
HDAC1; peptide conc. 1.52E-10 M, listed as des3.3.1_t1
  HDAC1 activity raw data (signal): 1024825
HDAC1; peptide conc. 1.52E-10 M, listed as des3.3.1_t2
  HDAC1 activity raw data (signal): 1088311
HDAC1; peptide conc. 3.33E-07 M, listed as des3.3.1_t1
  HDAC1 activity raw data (signal): 46006
HDAC1; peptide conc. 3.33E-07 M, listed as des3.3.1_t2
  HDAC1 activity raw data (signal): 42579
HDAC1; peptide conc. 3.70E-08 M, listed as des3.3.1_t1
  HDAC1 activity raw data (signal): 265387
HDAC1; peptide conc. 3.70E-08 M, listed as des3.3.1_t2
  HDAC1 activity raw data (signal): 253770
HDAC1; peptide conc. 4.12E-09 M, listed as des3.3.1_t1
  HDAC1 activity raw data (signal): 789498
HDAC1; peptide conc. 4.12E-09 M, listed as des3.3.1_t2
  HDAC1 activity raw data (signal): 714925
HDAC1; peptide conc. 4.57E-10 M, listed as des3.3.1_t1
  HDAC1 activity raw data (signal): 1015951
HDAC1; peptide conc. 4.57E-10 M, listed as des3.3.1_t2
  HDAC1 activity raw data (signal): 1019110
HDAC1; peptide conc. 5.08E-11 M, listed as des3.3.1_t1
  HDAC1 activity raw data (signal): 1072870
HDAC1; peptide conc. 5.08E-11 M, listed as des3.3.1_t2
  HDAC1 activity raw data (signal): 1116290
